# Results published in paper PMC6492070 (Frontiers in Pharmacology, 2019).
# Values joined by “and” are separate entries in the source; they are usually repeats but may differ in a detail not shown here. Identical values can stand only once. Like-named read-outs stand apart in the source and are kept apart here.
# Columns and labels:
# CYP2A19 [1] = experiment: in vitro; settings: both, hybrid sow × Piétrain boar, pig
# CYP2A19 [2] = test system: CYP2A19
# CYP2D [3] = experiment: in vitro; settings: both, hybrid sow × Piétrain boar, pig
# CYP2D [4] = test system: CYP2D
# [5] = pig, in vivo; cited from earlier work
# CYP3A [6] = test system: CYP3A
# CYP2D [7] = test system: CYP2D; remark: listed apart in the source
# IPEC-J2 cells = settings: cited from earlier work
# CYP2C [8] = test system: CYP2C
# CYP3A [9] = test system: CYP3A; remark: listed apart in the source
# CYP2C [10] = test system: CYP2C; remark: listed apart in the source
# CYP2C [11] = experiment: in vitro; settings: both, hybrid sow × Piétrain boar, pig
# CYP3A [12] = experiment: in vitro; settings: both, pig
# in vivo = settings: both, hybrid sow × Piétrain boars, pig; for k el: Ke
# [13] = both, hybrid sow × Piétrain boars, pig, in vivo
# [14] = both, hybrid sow × Piétrain boar, pig
structure (smiles),measurement,setting,value
"O=c1ccc2ccccc2o1 [CM, coumarin, reference compound]",Km,CYP2A19 [1],0.91 µM
same,Vmax,CYP2A19 [2],359 (4.1) pmol/mg protein/min
"COc1ccc2c(c1)[C@]13CCCC[C@@H]1[C@H](C2)N(C)CC3 [DXM, Dextromethorphan, reference compound]",Km,CYP2D [3],2 µM
same,Vmax,CYP2D [4],1971 (39.7) pmol/mg protein/min
"CCCC[C@@H](C)[C@@H](OC(=O)C[C@@H](CC(=O)O)C(=O)O)[C@H](C[C@@H](C)C[C@H](O)CCCC[C@@H](O)C[C@H](O)[C@H](C)N)OC(=O)C[C@@H](CC(=O)O)C(=O)O [FB1, fumonisin B1]",Inhibition type,CYP2A19 [2],Full mixed
same,Ki,CYP2A19 [2],2.3 µM
same,Residual activity,CYP2A19 [2],22.8 (3.50) %
same,α,CYP2A19 [2],14.0 (4.30)
same,Inhibition (efficacy),CYP2A19 [2]; microsomes,17%
"CC(=O)OC[C@]12C[C@H](OC(=O)CC(C)C)C(C)=C[C@H]1O[C@@H]1[C@H](O)[C@@H](OC(C)=O)[C@@]2(C)[C@]12CO2 [T-2, T-2 toxin]",Mean elimination half-life,[5],0.23 h
same,Parent toxin in plasma and liver,[5],no parent toxin could be detected
same,Formed metabolite OH-CM,CYP2A,6.5 ng/mL and 7.1 ng/mL and 6.9 ng/mL
same,OH-CM formation rate,CYP2A,80.1776 pmol/min/mg protein and 87.5786 pmol/min/mg protein and 85.1116 pmol/min/mg protein
same,"OH-CM formation rate, PRE",CYP2A,65.3756 pmol/min/mg protein and 55.5076 pmol/min/mg protein and 64.1421 pmol/min/mg protein
same,"OH-CM, pre-incubation (ruwe data)",CYP2A,5.3 and 4.5 and 5.2
same,"Residual CYP enzyme activity, CM (CYP2A)",CYP2A,72.5% and 99.1%
same,Formed metabolite PAR,CYP1A,47.3 ng/mL and 46.6 ng/mL and 46.9 ng/mL
same,PAR formation rate,CYP1A,625.827 pmol/min/mg protein and 616.565 pmol/min/mg protein and 620.535 pmol/min/mg protein
same,"PAR formation rate, PRE",CYP1A,523.948 pmol/min/mg protein and 490.871 pmol/min/mg protein and 492.194 pmol/min/mg protein
same,"PAR, pre-incubation (ruwe data)",CYP1A,39.6 and 37.1 and 37.2
same,"Residual CYP enzyme activity, PH (CYP1A)",CYP1A,78.2% and 96.7%
same,Inhibition type,CYP3A [6],Full non-competitive
same,Ki,CYP3A [6],27 µM
same,DEX formation rate,CYP2D [7],838.482 pmol/min/mg protein and 812.838 pmol/min/mg protein and 850.138 pmol/min/mg protein
same,"DEX formation rate, PRE",CYP2D [7],660.528 pmol/min/mg protein and 864.903 pmol/min/mg protein and 852.469 pmol/min/mg protein
same,"DEX, pre-incubation (ruwe data)",CYP2D [7],85 and 111.3 and 109.7
same,Formed metabolite DEX,CYP2D [7],107.9 ng/mL and 104.6 ng/mL and 109.4 ng/mL
same,"Residual CYP enzyme activity, DXM (CYP2D)",CYP2D [7],94.2% and 99.1%
same,Concentration significantly affecting epithelial integrity,IPEC-J2 cells,10 ng/mL and 21.43 nM
same,Formed metabolite OH-TB,CYP2C [8],8.9 ng/mL and 12.9 ng/mL and 13.4 ng/mL
same,OH-TB formation rate,CYP2C [8],12.4325 pmol/min/mg protein and 18.0201 pmol/min/mg protein and 18.7185 pmol/min/mg protein
same,"OH-TB formation rate, PRE",CYP2C [8],12.0134 pmol/min/mg protein and 12.2928 pmol/min/mg protein
same,"OH-TB, pre-incubation (ruwe data)",CYP2C [8],8.6 and 8.8
same,"Residual CYP enzyme activity, TB (CYP2C)",CYP2C [8],46.3% and 62.3%
same,Formed metabolite OH-CZ,CYP2E,25.3 ng/mL and 26.9 ng/mL
same,OH-CZ formation rate,CYP2E,272.688 pmol/min/mg protein and 289.933 pmol/min/mg protein
same,"OH-CZ formation rate, PRE",CYP2E,237.12 pmol/min/mg protein and 232.809 pmol/min/mg protein and 217.719 pmol/min/mg protein
same,"OH-CZ, pre-incubation (ruwe data)",CYP2E,22 and 21.6 and 20.2
same,"Residual CYP enzyme activity, CZ (CYP2E)",CYP2E,65.4% and 79.5%
same,Formed metabolite OH-MDZ,CYP3A [9],163 ng/mL and 160.8 ng/mL and 268.8 ng/mL
same,OH-MDZ formation rate,CYP3A [9],953.858 pmol/min/mg protein and 940.984 pmol/min/mg protein and 1572.99 pmol/min/mg protein
same,"OH-MDZ formation rate, PRE",CYP3A [9],348.773 pmol/min/mg protein and 383.884 pmol/min/mg protein and 308.395 pmol/min/mg protein
same,"OH-MDZ, pre-incubation (ruwe data)",CYP3A [9],59.6 and 65.6 and 52.7
same,Inhibition type,CYP2C [10],Full competitive
same,Ki,CYP2C [10],14.8 µM
same,Residual activity,CYP2C [10],24.0 (1.38) %
"CCCCNC(=O)NS(=O)(=O)c1ccc(C)cc1 [TB, tolbutamide, reference compound]",Km,CYP2C [11]; Km,1070 µM
same,Vmax,CYP2C [10],160 (16.0) pmol/mg protein/min and 132 (17.9) pmol/mg protein/min
same,Km,CYP2C [10]; [14],804 µM
"C[C@H]1CCCC(=O)CCC/C=C/c2cc(O)cc(O)c2C(=O)O1 [ZEA, zearalenone]",Ki,CYP2D [3],55.4 µM
same,activity,CYP2D [3],32%
same,Ki,"CYP3A [12]; hybrid sow × Piétrain boars, microsomes",1.1 µM
same,activity,"CYP3A [12]; hybrid sow × Piétrain boars, microsomes, Residual activity",< 30%
same,Inhibition type,CYP3A [6],Partial mixed
same,α,CYP3A [6],3.8 (1.43)
same,β,CYP3A [6],0.26 (0.064)
same,mean OH-MDZ formation rate as % of [mycotoxine]=0,"CYP3A [6]; both, hybrid sow × Piétrain boar cross, pig",26.7981
same,Residual activity,"CYP3A [6]; both, hybrid sow × Piétrain boars, pig, microsomes",27.0 (3.16) %
same,DEX formation rate as % of [mycotoxine]=0,CYP2D [4],37.1724
same,Inhibition type,CYP2D [4],Full non-competitive
same,Ki,CYP2C [11],0.54 µM
same,activity,CYP2C [11]; Residual activity,< 30%
same,Inhibition type,CYP2C [10],Partial competitive
same,α,CYP2C [10],9.5 (1.05)
same,Residual activity,CYP2C [10]; [14],18.7 (0.35) %
Cc1ncc2n1-c1ccc(Cl)cc1C(c1ccccc1F)=NC2 [midazolam],AUC(0-inf),"in vivo; iv, 0.036 mg/kg",11.5 ng·h/mL
same,clearance,"in vivo; iv, 0.036 mg/kg, Cl",767 mL/min
same,k el,"in vivo; iv, 0.036 mg/kg",0.000231 s⁻¹
same,MRT,"in vivo; iv, 0.036 mg/kg",0.71 h
same,Vd,"in vivo; iv, 0.036 mg/kg, Vd",60.8 L
same,AUC(0-inf),in vivo; iv,18 ng·h/mL
same,k el,"in vivo; po, 0.15 mg/kg",0.000108 s⁻¹
same,MRT,"in vivo; po, 0.15 mg/kg",3.58 h
same,Tmax,"in vivo; po, 0.15 mg/kg, Mean Tmax after removing the observation",0.714 ± 0.559 h
same,Tmax,"in vivo; po, 0.15 mg/kg, Tmax",1.15 h
same,Tmax,"in vivo; po, 0.15 mg/kg, Tmax of one pig",4 h
same,Tmax,"in vivo; po, 0.15 mg/kg, Tmax range",0.67 to 2 h
same,Tmax,"in vivo; po, 0.15 mg/kg, Tmax range of the other pigs",0.16 to 1.5 h
same,Km,"CYP3A [12]; hybrid sow × Piétrain boar, Km",12.3 µM
same,Vmax,CYP3A [6],2155 (73.8) pmol/mg protein/min and 1899 (88.2) pmol/mg protein/min
same,Km,CYP3A [6]; [14],11.3 µM
same,Cl,"[13]; iv, 0.036 mg/kg",45.5 (22.75) L/h
same,"AUC (0-inf) in the ZEA group, times higher on average",[13]; po,about 2.5 times
same,"Average Ka of the T-2 group, times higher compared to the control group",[13]; po,about 2.5 times
